# pIC50: −log10 of the molar value. “Also recorded” adds a separate entry of the source.
# Experiments:
# [1] = test system: MYPT1 phosphorylation at Thr853; assay: Western blot of MYPT1 phosphorylation at Thr853 in GTM3 cells; assay type: cell-based, human; conditions: 1 h, serum-rich medium; for effect on MYPT1 phosphorylation at Thr853: 5 μM; for pIC50: GTM3 cells, densitometry of western blot, read-out: IC50 for dephosphorylation of MYPT1 at Thr853
# Method: (§1) Cell cultures of an immortalized human glaucomatous trabecular meshwork (GTM3) cell line were grown at 37 °C in 5% CO2 in Dulbecco’s Minimum Essential Medium (DMEM + Glutamax) supplemented with 10% fetal bovine serum and 10 μg/ml of gentamicin (Invitrogen, Grand Island, NY) as previously described. Upon reaching confluence, cells were divided using 0.05% trypsin. Cells of passages 13 to 20 were used in our experiments.
# (§2) Following treatment with the desired drugs/agents, cells were rinsed in PBS and solubilized in 300 µl of 2× Laemmli sample buffer. The lysate was sonicated briefly and boiled for 5 min. Equal amounts of protein (30 μg) were loaded in 8% or 12% SDS–PAGE gels. Following electrophoresis, proteins were transferred to a nitrocellulose membrane (Biorad, Hercules, CA), blocked with 5% fat-free milk for 1 h, and incubated with specific phospho-MYPT1 or phospho-MLC antibodies overnight. The membranes were next incubated with the appropriate secondary antibodies for 1 h. The blots were finally washed and developed using an enhanced chemiluminescence kit (Pierce, Rockford, IL) according to the manufacturer’s instructions.
# (§3) A one-way ANOVA was used to compare mean values for different treatments with Bonferroni’s post-test analysis (Prism 5.0 for Windows; GraphPad Software, Inc., San Diego, CA). Results are expressed as mean±SEM. For analysis of ECIS (electrical cell-substrate impedance sensing) data, normalized numerical values from individual experiments were pooled and expressed as mean±SEM. A p value of less than 0.05 was considered statistically significant. “n” denotes the number of independent experiments performed. […] The calculations assume that log [drug] versus response follow a sigmoidal shape and were performed with Prism 5.0. The reported values of R indicate goodness of fit.
# [2] = test system: MYPT1 phosphorylation at Thr696; assay: Western blot of MYPT1 phosphorylation at Thr696 in GTM3 cells; assay type: cell-based, human; conditions: 1 h, serum-rich medium; for pIC50: GTM3 cells, densitometry of western blot, read-out: IC50 for dephosphorylation of MYPT1 at Thr696
# Method: as §1, §2, §3
# MLC phosphorylation = assay: Western blot of MLC phosphorylation (ppMLC) in GTM3 cells; assay type: cell-based, human; conditions: 1 h, serum-rich medium, densitometry of western blot, read-out: IC50 for dephosphorylation of MLC
# Method: as §1
# as §2, with “The blots were finally washed and developed using an enhanced chemiluminescence kit (Pierce, Rockford, IL) according to the manufacturer’s instructions.” left out
# A one-way ANOVA was used to compare mean values for different treatments with Bonferroni’s post-test analysis (Prism 5.0 for Windows; GraphPad Software, Inc., San Diego, CA). Results are expressed as mean±SEM. For analysis of ECIS (electrical cell-substrate impedance sensing) data, normalized numerical values from individual experiments were pooled and expressed as mean±SEM. […]
# [3] = test system: GTM3 cells (actomyosin contraction); assay: Collagen gel contraction assay with GTM3 cells; assay type: cell-based, human; conditions: for increase in the gel area (relaxation) compared with the control: 10 μM
# Method: A collagen gel contraction assay was performed as previously described. The wells of 24-well culture plates were coated with 1% BSA at 37 °C for 1 h. Glaucomatous trabecular meshwork cells were trypsinized and resuspended in culture medium at a density of 1×10^7 cells/ml. Rat-tail collagen Type I (BD Biosciences, San Jose, CA), 10× DMEM (Sigma, St. Louis, MO), reconstitution buffer (pH 7.3), TM cell suspension, and distilled water were mixed on ice to obtain a final concentration of 1.9 mg/ml of collagen and a final cell density of 2×10^5 cells/ml. The resultant mixture (0.5 ml) was added to each well of the BSA-coated culture clusters, and collagen gel formation was induced by incubation at 37 °C for 90 min. Serum-rich or serum-free DMEM (0.5 ml), without or with the drugs, was then added on top of the gels. After 1 h, the gels were freed from the walls of the culture wells. They were subsequently imaged every 24 h for 2 days. The area was calculated using NIH ImageJ software.
# [4] = test system: GTM3 cells (cell-matrix adhesion); assay: Electrical cell-substrate impedance sensing (ECIS), cell-matrix adhesion; assay type: cell-based, human
# Method: Cells were seeded on gold electrode-plated culture plates (8W10E+) and placed in an incubator at 37 °C with humidified air and 5% CO2. The attachment and spreading of the cells on electrodes was monitored continuously at 4 kHz until the observed electrical resistance reached a plateau and stabilized. This usually occurred within 20–24 h after inoculation. Impedance to current flow was measured at different frequencies (25 Hz to 60 kHz) periodically before and after inoculation. After reaching the steady-state of electric-cell substrate resistance, cells were exposed to the ROCK inhibitors, and the impedance was assessed at different frequencies every 30 min. The change in the measured resistance normalized to that of the bare electrode was taken as a measure of cell-matrix adhesion as discussed further below.
# ECIS involves the measurement of impedance to a small AC current applied across cells grown to confluence on planar gold microelectrodes. The measurement is non-invasive, and off-the-shelf instruments such as ECIS^TM 1600R (Applied Biophysics, Inc., Troy, NY) make use of a lock-in amplifier to measure small changes in electrical impedance at a high-temporal resolution. We have previously employed ECIS to assess the integrity of the apical junctional complex of the corneal endothelial monolayers. For epithelial monolayers, such as the corneal endothelium, the resistive component of the measured impedance implies trans-endothelial electrical resistance for current flow between the cells when confluent on the electrode. However, with non-epithelial cells, such as fibroblasts, measured impedance arises mainly out of resistance to current flow across the cell substrate (i.e., cell-matrix adhesion). In this study, we examined the dynamics of such cell-matrix resistance (i.e., resistive component of the measured impedance) with TM cells. […] This increase can be attributed to the attachment of cells to the substrate (gold electrode), which leads to an increased resistance to current flow. […]
# GTM3 cells = assay: Cell morphology (DIC), stress fibers and focal adhesions (F-actin, paxillin staining); assay type: cell-based, human; conditions: 1 h, serum-rich medium
# Method: Cells were first treated for the indicated time period in the serum-rich medium described earlier. Following a brief rinse with PBS, cells were fixed with 4% paraformaldehyde for 10 min and then permeabilized with 0.1% Triton-X for 10 min. For phosphorylated MLC staining, cells were blocked with 10% goat serum + 3% BSA, and, for vinculin and paxillin staining, the cells were blocked with 10% FBS for 1 h. Cells were incubated in primary antibody overnight, followed by secondary antibody incubation for 1 h. Double staining for actin was performed by incubating cells in Texas-red conjugated phalloidin for 20 min. After extensive washing, coverslips were mounted using ProLong AntiFade (Molecular Probes, Eugene, OR). Images were acquired using a Leica SP5 (Leica Microsystems, Bannockburn, IL) confocal microscope. After similar treatments, DIC images of cells fixed on coverslips were also obtained using a Nikon E800 (Nikon Instruments, Melville, NY) microscope.
# normal HTM cells = conditions: 10 μM; cited from earlier work
# [5] = test system: FAK (Tyr397) phosphorylation; assay: Serum-induced tyrosine phosphorylation of FAK (Tyr397), western blot; assay type: cell-based, human; conditions: 1 μM pretreatment, 10% serum added to serum-starved cells
# [6] = test system: paxillin (Tyr118) phosphorylation; assay: Serum-induced tyrosine phosphorylation of paxillin (Tyr118), western blot; assay type: cell-based, human; conditions: 1 μM pretreatment, 10% serum added to serum-starved cells
# [7] = rabbits; cited from earlier work
smiles,measurement,setting,value
C[C@@H](N)[C@H]1CC[C@H](C(=O)Nc2ccncc2)CC1 [Y-27632],effect on MYPT1 phosphorylation at Thr853,[1],complete dephosphorylation
same,pIC50,[1],6.18
same,effect on MYPT1 phosphorylation at Thr696,[2]; 5 μM,comparatively smaller reduction; also recorded: only slightly reduced; also recorded: only a marginal decrease
same,pIC50,[2],5.64
same,pIC50,MLC phosphorylation,5.97
same,increase in the gel area (relaxation) compared with the control,"[3]; 48 h, 10% serum",50%
same,change in electrical cell-substrate resistance,"[4]; 5 μM, up to 2 h",significant decrease in the peak resistance
same,change in cell shape (DIC images),GTM3 cells; 5 μM,"apparent shrinkage, with cells assuming a stellate appearance"
same,effect on stress fibers and focal adhesions,GTM3 cells; 5 μM,complete loss of stress fibers and focal adhesions
same,gel contraction allowed,normal HTM cells,30%
C[C@@H](N)c1ccc(C(=O)Nc2ccnc3[nH]ccc23)cc1 [Y-39983],effect on MYPT1 phosphorylation at Thr853,[1],complete dephosphorylation
same,pIC50,[1],7.82
same,pIC50,[2],6.75
same,pIC50,MLC phosphorylation,7.85
same,increase in the gel area compared with the control,"[3]; 1 μM, 48 h, 10% serum",86±5%
same,decrease in the contraction of the collagen gels,[3]; 5 μM,100%
same,change in electrical cell-substrate resistance,"[4]; 1 μM, up to 2 h",significant decrease in resistance; also recorded: rapid and more pronounced
same,change in cell shape (DIC images),GTM3 cells; 1 μM,"apparent shrinkage, with cells assuming a stellate appearance"
same,effect on stress fibers and focal adhesions,GTM3 cells; 1 μM,complete loss of stress fibers and focal adhesions
same,effect on stress fibers and focal adhesions,GTM3 cells; 5 μM,loss of stress fibers
same,effect on serum-induced tyrosine phosphorylation of FAK at Tyr397,[5],opposed
same,effect on serum-induced phosphorylation of paxillin at Tyr118,[6],opposed
same,decrease in IOP compared to Y-27632,[7],10 fold
Cc1ccc2c(c1)C(=O)C1(O)CCN(c3ccccc3)C1=N2 (stereo not shown) [blebbistatin],increase in the gel area (relaxation) compared with the control,"[3]; 48 h, 10% serum",102±1.3%
C=C1[C@@H](C)[C@H]2[C@H](Cc3ccccc3)NC(=O)[C@]23[C@H](OC(C)=O)/C=C/[C@@](C)(O)C(=O)[C@@H](C)C/C=C/[C@H]3[C@@H]1O [cytochalasin D],change in electrical cell-substrate resistance,[4]; 0.125 mg/ml,significant decrease in the measured resistance; also recorded: substantial decrease in the resistance
